A value given as a limit tells only on which side of the number the result lay.

These results are taken from patent publication US20160115186A1, “PHOSPHORIC ACID/PHOSPHONIC ACID DERIVATIVES AND MEDICINAL USES THEREOF” (priority 2013, published 2016).

For data set [1] the following is noted: Kamiya et al. 2002; read-out: cytotoxicity CC50; cited from earlier work.
The subject of a further data set is HBV. Kind of data set: microbe, parasite or virus in culture. To be noted: Hep G 2.2.15 cells, HBV DNA in supernate at day 10 post-dosing; read-out: IC50. In kind it is cell-based. How it is done:
At day 10 post-dosing, 100 μl supernate was taken and the content of HBV DNA was measured by the method of Quantitative PCR to calculate IC50 value.

For the next data set, the system named is Hep G 2.2.15 cells. The data set can be described thus: in vitro. Particulars: MTT, day 3 post-dosing. The class given is cell-based.
The subject of data set [2] is liver damage in mice caused by CCl4. In kind it is in vivo, Kunmin mice. To be noted: serum, CCl4 model, 0.2 mmol oral twice, 24 hours after second administration.
The subject of data set [3] is liver damage in mice caused by D-aminogalactose. In kind it is in vivo, Kunmin mice. Particulars: serum, D-aminogalactose 750 mg/kg model, 0.2 mmol oral twice, 24 hours after second administration.
For the next data set, the system named is DHBV. Kind of data set: animal or person. The class given is in vivo, sheldrakes. Particulars: serum DHBV DNA. How it is done:
The sheldrakes infected by vertical transmission and being positive in DHBV DNA detection were grouped randomly, 5/group. Water and different doses of the compound to be tested were intragastrically administrated, respectively, once a day, for 14 days. Venous blood samples were collected pre-dosing, at day 14 of dosing and at day 7 after drug withdrawal, the serum DHBV DNA content was measured using external standard TaqMan real-time fluorescence PCR method, and the inhibition ratio was calculated, as compared to the solvent group.

Data set [4] can be described thus: Evaluation of liver targeting property (active drug in liver and blood, HPLC-MS/MS). The class given is in vivo, Balb/C mice. To be noted: intragastric, dose equimolar to fosfomycin 200 mg/kg, active drug (free phosphonic or phosphoric acid). The text has this: Instrument: Finnigan Co. USA, TSQ Quantum-type liquid chromatography-mass spectrometry (LC/MS/MS), consisting of Finnigan Surveyor LC pump. Surveyor AS automatic sampler, electrospray ionization source (ESI) and triple tandem mass spectrometer. The control software is X calibur 1.4, Lcquan 2.0 data processing system is used for mass spectrometry data analysis. The chromatography column is Discovery ODS column (250 mm×4.6 mm, 5 μm), C18 guard column (4 mm×3.0 mm), the mobile phase is methanol-water-formic acid (10-30:90-70:0.5, V/V/V), the flow rate is 0.7 ml/min; the sample amount is 20 μL; and the column temperature is room temperature.

For data set [5] the following is noted: after MCC-478, phase I clinical trial, Chan et al. 2005; cited from earlier work.
[6] abbreviates: 10 mg/kg intragastric once a day for 14 days.
The mark [7] stands for this setting: 25 mg/kg intragastric once a day for 14 days.

As for `COc1ccc(Sc2nc(N)nc3c2ncn3CCOCP(=O)(O)OCC(F)(F)F)cc1` [Compound 602074], the CC50 in data set [1] is 548 µM.
For `CC(C)OC(=O)[C@H](C)N[P@](=O)(CO[C@H](C)Cn1cnc2c(N)ncnc21)Oc1ccccc1.O=C(O)/C=C/C(=O)O` [GS-7340, 9-[(R)-2-[[(S)-[[(S)-1-(isopropoxycarbonyl)-ethyl]-amino]-phenoxylphosphonyl]-methoxyl]-propyl]-adenine fumarate, reference compound], in the data set with HBV, the IC50 was found to be 0.071 µM. The compound further showed a CC50 in the data set with Hep G 2.2.15 cells of 94.2 µM. Also, the figures for the ALT in data set [2] and in data set [3] were 2483 U/L and 1064 U/L, respectively. In addition, the figures for the AST in data set [2] and in data set [3] were 2645 U/L and 1320 U/L, respectively.
For the compound `COC(=O)C(C)NP(=O)(OCCOCn1cnc2c(=O)[nH]c(N)nc21)Oc1ccc2c(c1)OCO2` (stereo not drawn) [Compound I41], the CC50 in the data set on Hep G 2.2.15 cells was more than 200 µM. Besides, in the data set with DHBV (setting [6]), the “Inhibition ratio (%) Day 14 of dosing” value is listed as 72.5% and the “Inhibition ratio (%) day 7 after drug withdrawal” value is 15.7%.
Turning to `CC(C)OC(=O)C(C)NP(=O)(OCCOCn1cnc2c(=O)[nH]c(N)nc21)Oc1ccc2c(c1)OCO2` (stereo not drawn) [Compound I27], the IC50 in the data set on HBV was 0.035 µM. This compound gave a 50% cytotoxic concentration (CC50) in the data set on Hep G 2.2.15 cells of more than 200 µM. Further, the Cliver/Cblood is given as 11.75 in data set [4] (1 h post-dosing) and 8.02 in data set [4] (6 h post-dosing). For the same compound, the ALT in data set [2] was determined as 663 U/L; in data set [3], 713 U/L. The AST is listed as 940 U/L in data set [2] and 522 U/L in data set [3]. The “Inhibition ratio (%) Day 14 of dosing” value in the data set on DHBV (setting [6]) was determined as 80.6%. Further, in the data set with DHBV (setting [6]), the “Inhibition ratio (%) day 7 after drug withdrawal” value came out at 10.5%.
Consider `CC(C)OC(=O)[C@H](C)N[P@@](=O)(CO[C@H](C)Cn1cnc2c(N)ncnc21)Oc1ccc2c(c1)OCO2` [Compound I21-a], for which, in the data set on HBV, the IC50 is 0.15 µM. In addition, the Cliver/Cblood in data set [4] (1 h post-dosing) is reported as 8.45. This compound also had a Cliver/Cblood in data set [4] (6 h post-dosing) of 12.02. In data set [2], the ALT is given as 353 U/L and the AST was 191 U/L. Besides, in data set [3], the ALT is on record as 379 U/L and the AST is 169 U/L. In the data set on DHBV (setting [7]), the “Inhibition ratio (%) Day 14 of dosing” value came out at 70.8% and the “Inhibition ratio (%) day 7 after drug withdrawal” value came out at 25.0%.
In turn, `CC(NP(=O)(OCCOCn1cnc2c(=O)[nH]c(N)nc21)Oc1ccc2c(c1)OCO2)C(=O)OC1CCCCC1` (stereo not drawn) [Compound I28] had a CC50 with Hep G 2.2.15 cells of more than 200 µM.
As to `COc1ccc(Sc2nc(N)nc3c2ncn3CCOCP(=O)(O)O)cc1` [Compound 602076], in data set [5], the “blood concentration relative to that of the monoester 602074” value is on record as “one tenth”.
Take “(benzo[1,3]dioxolan-5-yl) [5-[2-amino-5-(2-methylpropyl)-thiazol-4-yl]-furan-2-yl]-phosphonate-(1-isopropoxycarbonylethylamino)-phosphonamide [Compound I43]”: the CC50 in the data set on Hep G 2.2.15 cells was more than 200 µM. The ALT in data set [2] amounted to 507 U/L; in data set [3], 256 U/L. For the same compound, the figures for the AST in data set [2] and in data set [3] were 280 U/L and 517 U/L, respectively.
